Measurements as given in patent US20230019491A1, “PYRIMIDINE TBK/IKKe INHIBITOR COMPOUNDS AND USES THEREOF” (Merck Patent GmbH, priority 2017, published 2023).
Counter-ions that a name gives are not always drawn.

Columns and labels:
TBK1 = target: T1, TBK1 (Homo sapiens, UniProt Q9UHD2); test: TBK biochemical assay; details: 10 point 1:4 dose response, 30 uM top concentration, 90 min at 25° C., LabChip EZ Reader II; read-out: TBK1_IC50
T1 sequence (Q9UHD2 1-729): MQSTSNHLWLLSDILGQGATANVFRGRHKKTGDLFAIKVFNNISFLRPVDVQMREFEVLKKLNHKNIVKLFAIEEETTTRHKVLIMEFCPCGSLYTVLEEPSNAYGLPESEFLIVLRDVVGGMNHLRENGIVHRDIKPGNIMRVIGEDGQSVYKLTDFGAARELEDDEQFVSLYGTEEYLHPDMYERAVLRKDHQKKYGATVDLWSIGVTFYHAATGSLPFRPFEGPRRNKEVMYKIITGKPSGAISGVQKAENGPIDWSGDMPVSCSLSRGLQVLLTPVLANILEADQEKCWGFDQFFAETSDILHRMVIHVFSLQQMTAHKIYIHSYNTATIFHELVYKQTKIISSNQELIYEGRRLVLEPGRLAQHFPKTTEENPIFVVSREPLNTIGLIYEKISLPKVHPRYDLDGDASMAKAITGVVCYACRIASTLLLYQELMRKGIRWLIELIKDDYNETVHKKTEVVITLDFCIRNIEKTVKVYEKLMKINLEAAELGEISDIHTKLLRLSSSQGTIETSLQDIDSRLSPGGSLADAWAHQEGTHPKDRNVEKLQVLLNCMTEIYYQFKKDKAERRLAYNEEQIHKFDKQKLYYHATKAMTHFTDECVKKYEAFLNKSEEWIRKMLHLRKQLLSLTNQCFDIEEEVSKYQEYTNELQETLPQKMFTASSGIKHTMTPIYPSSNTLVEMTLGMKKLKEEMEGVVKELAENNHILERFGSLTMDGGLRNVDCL
In short: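 Read-out was a Caliper LabChip mobility-shift assay, run after a 90-min, 25 °C reaction of TBK1 with substrate and compounds, quenched with stop buffer. Control wells received staurosporine at 10 uM final.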

IKKε = target: T2, IKKε (Homo sapiens, UniProt Q14164); test: IKKε biochemical assay; details: 10 point 1:4 dose response, 30 uM top concentration, 90 min at 25° C., LabChip EZ Reader II; read-out: IKKε_IC50
T2 sequence (Q14164 1-716): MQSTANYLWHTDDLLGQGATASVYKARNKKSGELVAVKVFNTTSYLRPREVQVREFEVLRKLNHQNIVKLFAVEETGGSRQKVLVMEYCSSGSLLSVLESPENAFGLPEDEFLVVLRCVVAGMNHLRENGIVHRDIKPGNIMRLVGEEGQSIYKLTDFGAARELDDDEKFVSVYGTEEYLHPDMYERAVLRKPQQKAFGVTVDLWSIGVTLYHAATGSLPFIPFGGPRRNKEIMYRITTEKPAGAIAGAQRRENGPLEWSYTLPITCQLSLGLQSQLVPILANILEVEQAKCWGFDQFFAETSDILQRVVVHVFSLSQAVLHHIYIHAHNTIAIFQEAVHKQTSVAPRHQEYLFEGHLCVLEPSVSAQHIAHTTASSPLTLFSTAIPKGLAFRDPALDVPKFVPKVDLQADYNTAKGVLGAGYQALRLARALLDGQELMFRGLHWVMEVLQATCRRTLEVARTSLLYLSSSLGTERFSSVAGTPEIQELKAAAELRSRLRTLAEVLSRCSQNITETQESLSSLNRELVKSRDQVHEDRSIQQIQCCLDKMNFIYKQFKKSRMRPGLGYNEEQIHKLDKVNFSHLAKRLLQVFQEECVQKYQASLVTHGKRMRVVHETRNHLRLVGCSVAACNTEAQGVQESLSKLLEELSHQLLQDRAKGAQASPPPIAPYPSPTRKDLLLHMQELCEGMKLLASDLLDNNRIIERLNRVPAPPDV
In short: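 Mobility-shift LabChip read-out followed a 90 min, 25° C. reaction of IKKε with substrate and test compound, with DMSO held at 1% final. Reactions were ended with stop buffer. Wells with 10 uM final staurosporine defined complete inhibition, and DMSO-only wells the uninhibited level.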

## C[C@H](O)C(=O)N1CCC(Oc2ccc(-c3ccnc(Nc4ccccn4)n3)cc2C#N)C(F)(F)C1 (stereo partly drawn) [Example 219, 2-(3,3-difluoro-1-((S)-2-hydroxypropanoyl)piperidin-4-yloxy)-5-(2-(pyridin-2-ylamino)pyrimidin-4-yl)benzonitrile]
TBK1
  IC50: < 0.1 µM
IKKε
  IC50: < 0.1 µM

## COc1nc(Nc2nccc(-c3ccc(OC4CCOCC4)c(C#N)c3)n2)ccc1C(=O)N1CCN(CCO)CC1 [Example 15, 5-(2-{5-[4-(2-Hydroxy-ethyl)-piperazine-1-carbonyl]-6-methoxy-pyridin-2-ylamino}-pyrimidin-4-yl)-2-(tetrahydro-pyran-4-yloxy)-benzonitrile]
TBK1
  IC50: < 0.1 µM
IKKε
  IC50: < 0.1 µM

## CCOc1cc(Nc2nccc(-c3ccc(OC4CCN(C(=O)[C@H](C)O)CC4(F)F)c(C#N)c3)n2)ccc1N1CCN(C2COC2)CC1 (stereo partly drawn) [Example 229, 2-([3,3-difluoro-1-[(2S)-2-hydroxypropanoyl]piperidin-4-yl]oxy)-5-[2-([3-ethoxy-4-[4-(oxetan-3-yl)piperazin-1-yl]phenyl]amino)pyrimidin-4-yl]benzonitrile]
TBK1
  IC50: < 0.1 µM
IKKε
  IC50: < 0.1 µM

## COc1nc(Nc2nccc(-c3ccc(O[C@@H]4CCN(C(=O)[C@@H](C)O)C[C@@H]4F)c(C#N)c3)n2)ccc1C1CCN(C2COC2)CC1 [Example 195, 2-[(3S,4R)-3-Fluoro-1-((R)-2-hydroxy-propionyl)-piperidin-4-yloxy]-5-[2-(2-methoxy-1′-oxetan-3-yl-1′,2′,3′,4′,5′,6′-hexahydro-[3,4′]bipyridinyl-6-ylamino)-pyrimidin-4-yl]-benzonitrile]
TBK1
  IC50: 0.1 to 1 µM
IKKε
  IC50: 0.1 to 1 µM

## COc1nc(Nc2nccc(-c3ccc(O[C@H]4CCN(C(=O)[C@H](C)O)C[C@H]4F)c(C#N)c3)n2)ccc1C1CCN(C2COC2)CC1 [Example 191, 2-[(3R,4S)-3-Fluoro-1-((S)-2-hydroxy-propionyl)-piperidin-4-yloxy]-5-[2-(2-methoxy-1′-oxetan-3-yl-1′,2′,3′4′,5′,6′-hexahydro-[3,4′]bipyridinyl-6-ylamino)-pyrimidin-4-yl]-benzonitrile]
TBK1
  IC50: < 0.1 µM
IKKε
  IC50: < 0.1 µM

## COc1nc(Nc2nccc(-c3ccc(OC4CCN(C(=O)[C@@H](C)O)CC4(F)F)c(C#N)c3)n2)ccc1N1CCN(C)CC1C (stereo in doubt) [Example 110, 2-[3,3-Difluoro-1-((R)-2-hydroxy-propionyl)-piperidin-4-yloxy]-5-{2-[5-((S)-2,4-dimethyl-piperazin-1-yl)-6-methoxy-pyridin-2-ylamino]-pyrimidin-4-yl}-benzonitrile]
TBK1
  IC50: < 0.1 µM
IKKε
  IC50: < 0.1 µM

## C[C@H](O)C(=O)N1CCC(Oc2ccc(-c3nc(Nc4ccc(N5CCN(C6COC6)CC5)cc4)ncc3F)cc2C#N)C(F)(F)C1 (stereo partly drawn) [Example 300, 2-({3,3-difluoro-1-[(2S)-2-hydroxypropanoyl]piperidin-4-yl}oxy)-5-[5-fluoro-2-({4-[4-(oxetan-3-yl)piperazin-1-yl]phenyl}amino)pyrimidin-4-yl]benzonitrile]
TBK1
  IC50: < 0.1 µM
IKKε
  IC50: < 0.1 µM

## COc1nc(Nc2nccc(-c3ccc(OC4CCN(C(=O)C(C)(C)O)CC4(F)F)c(C#N)c3)n2)ccc1N1CCN(C)C[C@H]1C (stereo partly drawn) [Example 114, 2-[3,3-Difluoro-1-(2-hydroxy-2-methyl-propionyl)-piperidin-4-yloxy]-5-{2-[5-((R)-2,4-dimethyl-piperazin-1-yl)-6-methoxy-pyridin-2-ylamino]-pyrimidin-4-yl}-benzonitrile]
TBK1
  IC50: < 0.1 µM
IKKε
  IC50: < 0.1 µM

## COc1cc(Nc2nccc(-c3ccc(OC4CCOCC4)c(C#N)c3)n2)ncc1N1CCN(C)CC1 [Example 53, 5-(2-[[4-methoxy-5-(4-methylpiperazin-1-yl)pyridin-2-yl]amino]pyrimidin-4-yl)-2-(oxan-4-yloxy)benzonitrile hydrochloride]
TBK1
  IC50: 0.1 to 1 µM
IKKε
  IC50: 0.1 to 1 µM

## COc1nc(Nc2nccc(-c3ccc(OC4CCN(C(=O)CO)CC4(F)F)c(C#N)c3)n2)ccc1C1CCN(C)CC1 (stereo not drawn) [Example 234, 2-[[3,3-difluoro-1-(2-hydroxyacetyl)piperidin-4-yl]oxy]-5-(2-[[6-methoxy-5-(l-methylpiperidin-4-yl)pyridin-2-yl]amino]pyrimidin-4-yl)benzonitrile]
TBK1
  IC50: < 0.1 µM
IKKε
  IC50: < 0.1 µM

## COc1nc(Nc2nccc(-c3cc(C#N)c(OC4CCOCC4)cn3)n2)ccc1C1CCN(C)CC1 [Example 45, 2-(2-[[6-methoxy-5-(1-methylpiperidin-4-yl)pyridin-2-yl]amino]pyrimidin-4-yl)-5-(oxan-4-yloxy)pyridine-4-carbonitrile]
TBK1
  IC50: > 5 µM
IKKε
  IC50: 1 to 5 µM

## COc1cc(Nc2nccc(-c3ccc(OC4CCOCC4)c(C#N)c3)n2)cnc1C1CCN(C)CC1 [Example 57, 5-(2-[[5-methoxy-6-(1-methylpiperidin-4-yl)pyridin-3-yl]amino]pyrimidin-4-yl)-2-(oxan-4-yloxy)benzonitrile]
TBK1
  IC50: < 0.1 µM
IKKε
  IC50: < 0.1 µM

## COc1nc(Nc2nccc(-c3ccc(OC4CCN(C(=O)[C@@H](C)O)CC4(F)F)c(C#N)c3)n2)ccc1N1CCN(C)C[C@@H]1C (stereo partly drawn) [Example 111, 2-[3,3-Difluoro-1-((R)-2-hydroxy-propionyl)-piperidin-4-yloxy]-5-{2-[5-((S)-2,4-dimethyl-piperazin-1-yl)-6-methoxy-pyridin-2-ylamino]-pyrimidin-4-yl}-benzonitrile]
TBK1
  IC50: < 0.1 µM
IKKε
  IC50: < 0.1 µM

## COc1nc(Nc2nccc(-c3ccc(OC4CCN(C(=O)C(C)F)CC4(F)F)c(C#N)c3)n2)ccc1N1CCN(C2COC2)CC1 (stereo not drawn) [Example 259, 2-[3,3-Difluoro-1-(2-fluoro-propionyl)-piperidin-4-yloxy]-5-{2-[6-methoxy-5-(4-oxetan-3-yl-piperazin-1-yl)-pyridin-2-ylamino]-pyrimidin-4-yl}-benzonitrile]
TBK1
  IC50: < 0.1 µM
IKKε
  IC50: < 0.1 µM

## COc1nc(Nc2ncc(F)c(-c3ccc(O[C@H]4CCN(C(=O)C(C)O)C[C@H]4F)c(C#N)c3)n2)ccc1N1CCN(C2COC2)CC1 (stereo in doubt) [Example 297, 2-{[3-fluoro-1-(2-hydroxypropanoyl)piperidin-4-yl]oxy}-5-[5-fluoro-2-({6-methoxy-5-[4-(oxetan-3-yl)piperazin-1-yl]pyridin-2-yl}amino)pyrimidin-4-yl]benzonitrile]
TBK1
  IC50: < 0.1 µM
IKKε
  IC50: < 0.1 µM

## COc1nc(Nc2nccc(-c3ccc(OC4CCOCC4)c(C#N)c3)n2)ccc1C(=O)N1CC2CCC1CO2 (stereo not drawn) [Example 11, 5-(2-[[6-methoxy-5-([2-oxa-5-azabicyclo[2.2.2]octan-5-yl]carbonyl)pyridin-2-yl]amino]pyrimidin-4-yl)-2-(oxan-4-yloxy)benzonitrile]
TBK1
  IC50: < 0.1 µM
IKKε
  IC50: < 0.1 µM

## COc1nc(Nc2nccc(-c3ccc(OC4CCN(C(=O)[C@@H](C)O)CC4(F)F)c(C#N)c3)n2)ccc1N1CCN(C)[C@@H](C)C1 (stereo partly drawn) [Example 102, 2-[3,3-Difluoro-1-((R)-2-hydroxy-propionyl)-piperidin-4-yloxy]-5-{2-[5-((S)-3,4-dimethyl-piperazin-1-yl)-6-methoxy-pyridin-2-ylamino]-pyrimidin-4-yl}-benzonitrile]
TBK1
  IC50: < 0.1 µM
IKKε
  IC50: < 0.1 µM

## COc1nc(Nc2nccc(-c3ccc(OC4CCN(C)C4)c(C#N)c3)n2)ccc1C(=O)N(C)C (stereo not drawn) [Example 70, 6-[(4-[3-cyano-4-[(1-methylpyrrolidin-3-yl)oxy]phenyl]pyrimidin-2-yl)amino]-2-methoxy-N,N-dimethylpyridine-3-carboxamide hydrochloride]
TBK1
  IC50: 0.1 to 1 µM
IKKε
  IC50: 0.1 to 1 µM
